We go through five compounds from patent US20040204487A1, “Novel medicinal product” (priority 2002, published 2004).

“Also recorded” adds a separate entry of the source.

Series [1] concerns pre-adipocyte fibroblasts. Particulars: cited from earlier work.
Series [2] relates to 3T3-F442A cells. In words: Triacylglyceride accumulation in differentiating 3T3-F442A pre-adipocytes. Format: cell-based, murine. Conditions: for Triacylglycerides (μg/mg protein): 10 μM from confluency, control (no treatment) 0.16; for Triacylglycerides (μg/mg protein) / concentration of TAGs in the adipocytes, % relative to the control / inhibition of cell differentiation (in words): 7 days; for concentration of TAGs in the adipocytes, % relative to the control: control 100% (FIG. 2); for inhibition of cell differentiation (in words): 10 μM. The protocol: The pre-adipocyte lines 3T3-F442A (commercial line) and BFC 115 (from Claude Forest INSERM, St. Pères Paris V) are cultured until confluency in Dulbecco's modified Eagle medium (DMEM) (Gibco) in the presence of 5% of newborn calf serum and 5% of fetal calf serum (Gibco).
From confluency, the cells are cultured in a differentiating medium (DMEM with 10% of fetal calf serum and 20 nM of insulin) in the presence or absence of the metabolites to be tested.
The medium is renewed every two or three days.
The differentiation of the cells is evaluated either by morphological criteria (very rounded cells having accumulated large lipid vacuoles) or by measuring the average amount of triglycerides per cell (ratio of the amount of triglyceride per dish to the amount of protein per dish). Under standard culture conditions, in 8 days, 90% of the pre-adipocytes have differentiated to adipocytes.
The cells are washed with PBS phosphate buffer (Sigma), recovered from the bottom of the Petri dish by scraping with a spatula, fragmented by ultrasound (2 seconds) and then centrifuged at 10000 g for 20 minutes.
The centrifugation supernatant is removed for triacylglyceride (TAG) analysis.
To determine the average amount of triglycerides per cell at the end of the abovementioned experiments, an automated enzymatic colorimetric test (Roche method) which is based on the studies of Wahlefeld (Wahlefeld and Bergmeyer (eds). Methods of Enzymatic Analysis. 2 second edition. New York Academic Press Inc. 1974: 1831) was used as assaying method.
The 3T3-F442A pre-adipocyte cells were treated from confluency with 12(R)-HETE (10 μM), 12(S)-HETE (10 μM), 11,12-EET (10 μM) and with Δ 15-deoxy prostaglandin J2 (10 μM, Δ 15-deoxyPGJ2) in the presence or absence of 10 μM of 12(R)-HETE. The cell differentiation was evaluated after 7 days by measuring, as indicated above, the amount of triacylglycerides accumulated per mg of protein.
To do this, 3T3-F442A fibroblasts, or pre-adipocyte cells, were treated from confluency with various concentrations of 12(R)-HETE. The cell differentiation was evaluated after 7 days by measuring the amount of triacylglycerides (TAGs) accumulated per mg of protein (prot).

In series [3] the test system is differentiated 3T3-F442A cells. As to the kind of experiment: Residual level of metabolite in culture medium of differentiated cells (LC-MS). Type of series: in vitro ADME, murine. Particulars: 10 μM. As to the method: It was also determined that the residual level of 12(R)-HETE, present at a concentration of 10 μM in the culture medium of the differentiated 3T3-F442A cells, is respectively 85% and 2.3% after 6 h and 18 h of incubation.
The residual amounts of 12(R)-HETE were analyzed by LC-MS.

In series [4] the test system is 3T3-F442A cells. In words: Direct morphological examination of differentiation of fibroblasts to adipocytes. Type of series: cell-based, murine. As to the method:
The differentiation of the cells is evaluated either by morphological criteria (very rounded cells having accumulated large lipid vacuoles) or by measuring the average amount of triglycerides per cell (ratio of the amount of triglyceride per dish to the amount of protein per dish). Under standard culture conditions, in 8 days, 90% of the pre-adipocytes have differentiated to adipocytes. To show by direct morphological examination the differentiation of the fibroblasts to adipocytes in the presence or absence of the metabolites 12-HETE and/or 11,12-EET, the following procedure was carried out. The 3T3-F442A cells are treated, from confluency, with these metabolites. The treatment was renewed every 2 or 3 days throughout the entire differentiation process. The level of differentiation of the cells was evaluated by observation under a photon microscope with a 200 times magnification (see the photos shown in figures FIG. 1A, FIG. 1A1, FIG. 1B and FIG. 1B1).

In series [5] the test system is BFC-115 pre-adipocyte cells. As to the kind of experiment: Triacylglyceride accumulation in differentiating BFC-115 pre-adipocytes. Type of series: cell-based, murine. Particulars: 7 days; for Amount of TAG in μg/mg of protein: control 0.45; for inhibition of the differentiation of the pre-adipocytes: 10 μM. As to the method: The pre-adipocyte lines 3T3-F442A (commercial line) and BFC 115 (from Claude Forest INSERM, St. Pères Paris V) are cultured until confluency in Dulbecco's modified Eagle medium (DMEM) (Gibco) in the presence of 5% of newborn calf serum and 5% of fetal calf serum (Gibco). From confluency, the cells are cultured in a differentiating medium (DMEM with 10% of fetal calf serum and 20 nM of insulin) in the presence or absence of the metabolites to be tested. The medium is renewed every two or three days. The differentiation of the cells is evaluated either by morphological criteria (very rounded cells having accumulated large lipid vacuoles) or by measuring the average amount of triglycerides per cell (ratio of the amount of triglyceride per dish to the amount of protein per dish). Under standard culture conditions, in 8 days, 90% of the pre-adipocytes have differentiated to adipocytes. […] The BFC-115 pre-adipocyte cells were treated from confluency with 12(R)-HETE (10 μM), 12(S)-HETE (10 μM), 11,12-EET (10 μM) and with arachidonic acid AA (100 μM). The cell differentiation was evaluated after 7 days by measuring the amount of triacylglycerides accumulated per mg of protein.

Series [6] in a line: Cellular toxicity markers after 8 days of treatment. Particulars: 30 μM. Type of series: cell-based. The protocol:
The possible toxicity of the metabolites selected in accordance with the invention was also studied.
For this purpose, several cellular toxicity markers were measured after 8 days of treatment, namely
the LDH (lactate dehydrogenase) activity in the culture medium, a control for membrane permeabilization,
fragmentation of the nucleus by “Hoechst” staining, which is a marker for apoptosis and which is described in Leukemia, 15, 1572-81. Plenchette, S., Moutet M., Benguella M., N'Gondara J. P., Guigner F., Coffe C., Corcos L., Bettaieb A. and Solary E. (2001).

Series [7] deals with cells from human adipose tissue. In words: Triglyceride accumulation in cells from human adipose tissue. Format: cell-based. Conditions: 10 μM, pro-differentiating medium, three experiments. The source says:
In addition, cells originating from human fat tissues subsequent to surgical interventions requiring their removal were used. The removed tissues are collected on a bed of ice and immediately treated in the laboratory. The cell culture consists of a mixture of pre-adipocyte cells and adipocyte cells already differentiated.

`CCCCC/C=C/C=C1/C(=O)C=C[C@@H]1C/C=C\CCCC(=O)O` [15-deoxyPGJ2, 15-deoxy-Δ^12,14-prostaglandin J2, reference compound]: the “concentrations at which differentiation is accelerated” value in series [1] is 10^−5 to 10^−6 M. In the series with 3T3-F442A cells [2], the “Triacylglycerides (μg/mg protein)” value was 0.52 μg/mg protein.

Consider `CCCCC/C=C\C[C@@H](O)/C=C/C=C\C/C=C\CCCC(=O)O` [12(R)-HETE, 12-hydroxyeicosatetraenoic acid], for which the “penetration into the cells (conclusion from residual level)” value in series [3] was “clearly penetrates into the cells”. In addition, the “residual level in the culture medium” value in series [3] (after 6 h of incubation) was 85%; in series [3] (after 18 h of incubation), 2.3%. Also, in the series on 3T3-F442A cells [4] (10 μM, 7 days, with or without 100 μM arachidonic acid (FIG. 1A1, 1B1)), the “cell morphology under photon microscope” value is “spindle-shaped with very few lipid globules”. Moreover, the “Amount of TAG in μg/mg of protein” value in series [5] (10 μM from confluency) is on record as “=0.17 μg/mg of protein”. The “inhibition of the differentiation of the pre-adipocytes” value in series [5] is given as “approximately 40%”. Also, the “concentration of TAGs in the adipocytes, % relative to the control” value was “approximately 85%” in the series on 3T3-F442A cells [2] (5 μM) and “approximately 25%” with 3T3-F442A cells [2] (30 μM). The “inhibition of the differentiation induced by Δ 15-deoxyprostaglandin J2” value with 3T3-F442A cells [2] (10 μM 12(R)-HETE with 10 μM 15-deoxyPGJ2, 7 days) is listed as “approximately 40%”. Also, the “Triacylglycerides (μg/mg protein)” value in the series on 3T3-F442A cells [2] turned out to be 0.04 μg/mg protein. In addition, in the series with 3T3-F442A cells [2], the “inhibition of cell differentiation (in words)” value is listed as “greatly inhibit the cell differentiation; also recorded: greater than that of 12(S)-HETE”. Also, the “cellular toxicity markers (number of cells, cell morphology, LDH activity in medium, fragmentation of the nucleus by Hoechst staining)” value in series [6] is recorded as “None of these markers responds positively”. Moreover, in series [7], the “inhibition of the accumulation of triglycerides” value came to 50%.

In the case of `CCCCC/C=C\C[C@@H](O)/C=C/C=C\C/C=C\CCCC(=O)O` [12(S)-HETE, 12-hydroxyeicosatetraenoic acid], the “Amount of TAG in μg/mg of protein” value in series [5] (10 μM from confluency) is “=0.28 μg/mg of protein”. For the same compound, in series [5], the “inhibition of the differentiation of the pre-adipocytes” value is listed as “approximately 40%”. Moreover, in the series on 3T3-F442A cells [2], the “Triacylglycerides (μg/mg protein)” value is reported as 0.07 μg/mg protein and the “inhibition of cell differentiation (in words)” value is recorded as “greatly inhibit the cell differentiation”.

As for `CCCCC/C=C\CC1OC1C/C=C\C/C=C\CCCC(=O)O` (stereo not drawn) [11,12-EET, 11,12-epoxyeicosatrienoic acid], the “Amount of TAG in μg/mg of protein” value in series [5] (10 μM from confluency) is “=0.22 μg/mg of protein”. Besides, the “inhibition of the differentiation of the pre-adipocytes” value in series [5] is “approximately 40%”. Further, in the series on 3T3-F442A cells [2], the “Triacylglycerides (μg/mg protein)” value came out at 0.08 μg/mg protein and the “inhibition of cell differentiation (in words)” value was “greatly inhibit the cell differentiation”. For the same compound, in series [7], the “inhibition of the accumulation of triglycerides” value is 50%.

Turning to `CCCCC/C=C\C/C=C\C/C=C\C/C=C\CCCC(=O)O` [AA, arachidonic acid, reference compound], in the series with 3T3-F442A cells [4] (100 μM from confluency (FIG. 1B)), the “cell morphology under photon microscope” value is recorded as “increases the amount of cells differentiated into adipocytes”. Moreover, the “Amount of TAG in μg/mg of protein” value in series [5] (100 μM from confluency) is “=0.55 μg/mg of protein”. Also, the “effect on differentiation (in words)” value in series [5] (100 μM) was “clearly promotes the differentiation”.
